Data reported in the supplement of paper PMC10307832.

Legend:
Experiment in all cases: relative viability (nuclei count vs DMSO), 5 days (fraction); higher = more cells survive
Ruboxistaurin = compound: CN(C)C[C@@H]1CCn2cc(c3ccccc32)C2=C(C(=O)NC2=O)c2cn(c3ccccc23)CCO1 [Ruboxistaurin]
How it was run: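 Lung cancer cell lines in 1536-well plates were exposed by pinning to five library-drug doses (not always all listed) √10 apart, following an overnight hold at 37 °C. MetaXpress counted Hoechst-stained nuclei from 4× images taken after 5 days without medium change. Viability is the median ratio of treated-well to vehicle-well nuclei across plates. Plates required control CV below 25% and at least one doubling.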

[1] = compound: CN(C)C[C@@H]1CCn2cc(c3ccccc32)C2=C(C(=O)NC2=O)c2cn(c3ccccc23)CCO1 [Ruboxistaurin] + CC(=O)Nc1cccc(-n2c(=O)n(C3CC3)c(=O)c3c(Nc4ccc(I)cc4F)n(C)c(=O)c(C)c32)c1 [Trametinib] (partner 0.02 µM)
How it was run: (§1)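 Lung cancer cell lines in 1536-well plates got either a single drug or a fixed anchor-drug dose together with five library-drug doses (not always all listed) in √10 steps, by pin tool, on the day after seeding. Nuclei were counted after 5 days, and relative viability is the treated-to-vehicle ratio of nuclei counts. Values are medians of duplicate plates.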

[2] = compound: CN(C)C[C@@H]1CCn2cc(c3ccccc32)C2=C(C(=O)NC2=O)c2cn(c3ccccc23)CCO1 [Ruboxistaurin] + CC(=O)c1c(C)c2cnc(Nc3ccc(N4CCNCC4)cn3)nc2n(C2CCCC2)c1=O [Palbociclib] (partner 0.5 µM)
How it was run: as §1

[3] = compound: CN(C)C[C@@H]1CCn2cc(c3ccccc32)C2=C(C(=O)NC2=O)c2cn(c3ccccc23)CCO1 [Ruboxistaurin] + CCNC(=O)c1noc(-c2cc(C(C)C)c(O)cc2O)c1-c1ccc(CN2CCOCC2)cc1 [Luminespib] (partner 0.01 µM)
How it was run: as §1

[4] = compound: CN(C)C[C@@H]1CCn2cc(c3ccccc32)C2=C(C(=O)NC2=O)c2cn(c3ccccc23)CCO1 [Ruboxistaurin] + COc1cc2c(Oc3ccc(NC(=O)C4(C(=O)Nc5ccc(F)cc5)CC4)cc3F)ccnc2cc1OCCCN1CCOCC1 [Foretinib] (partner 0.25 µM)
How it was run: as §1

Ruboxistaurin + OSI-027 = compound: CN(C)C[C@@H]1CCn2cc(c3ccccc32)C2=C(C(=O)NC2=O)c2cn(c3ccccc23)CCO1 [Ruboxistaurin] + COc1cccc2cc(-c3nc([C@H]4CC[C@H](C(=O)O)CC4)n4ncnc(N)c34)[nH]c12 [OSI-027] (partner 0.5 µM)
How it was run: as §1

[5] = compound: CN(C)C[C@@H]1CCn2cc(c3ccccc32)C2=C(C(=O)NC2=O)c2cn(c3ccccc23)CCO1 [Ruboxistaurin] + Cc1cc(Nc2cc(N3CCN(C)CC3)nc(Sc3ccc(NC(=O)C4CC4)cc3)n2)n[nH]1 [Tozasertib] (partner 0.1 µM)
How it was run: as §1

[6] = compound: CN(C)C[C@@H]1CCn2cc(c3ccccc32)C2=C(C(=O)NC2=O)c2cn(c3ccccc23)CCO1 [Ruboxistaurin] + Cc1nc(Nc2ncc(C(=O)Nc3c(C)cccc3Cl)s2)cc(N2CCN(CCO)CC2)n1 [Dasatinib] (partner 0.075 µM)
How it was run: as §1

[7] = compound: CN(C)C[C@@H]1CCn2cc(c3ccccc32)C2=C(C(=O)NC2=O)c2cn(c3ccccc23)CCO1 [Ruboxistaurin] + N=C(N)NC(=N)NCCc1ccccc1 [Phenformin] (partner 250 µM)
How it was run: as §1

Ruboxistaurin + AZD7762 = compound: CN(C)C[C@@H]1CCn2cc(c3ccccc32)C2=C(C(=O)NC2=O)c2cn(c3ccccc23)CCO1 [Ruboxistaurin] + NC(=O)Nc1cc(-c2cccc(F)c2)sc1C(=O)N[C@H]1CCCNC1 [AZD7762] (partner 0.2 µM)
How it was run: as §1

[8] = compound: CN(C)C[C@@H]1CCn2cc(c3ccccc32)C2=C(C(=O)NC2=O)c2cn(c3ccccc23)CCO1 [Ruboxistaurin] + Nc1nc2[nH]cc(CCc3ccc(C(=O)N[C@@H](CCC(=O)O)C(=O)O)cc3)c2c(=O)[nH]1 [Pemetrexed] (partner 0.2 µM)
How it was run: as §1

[9] = compound: CN(C)C[C@@H]1CCn2cc(c3ccccc32)C2=C(C(=O)NC2=O)c2cn(c3ccccc23)CCO1 [Ruboxistaurin] + Nc1ncn([C@H]2C[C@H](O)[C@@H](CO)O2)c(=O)n1 [Decitabine] (partner 2 µM)
How it was run: as §1

[10] = compound: CN(C)C[C@@H]1CCn2cc(c3ccccc32)C2=C(C(=O)NC2=O)c2cn(c3ccccc23)CCO1 [Ruboxistaurin] + O=C(CCCCCCC(=O)Nc1ccccc1)NO [Vorinostat] (partner 1 µM)
How it was run: as §1

Ruboxistaurin + Olaparib = compound: CN(C)C[C@@H]1CCn2cc(c3ccccc32)C2=C(C(=O)NC2=O)c2cn(c3ccccc23)CCO1 [Ruboxistaurin] + O=C(c1cc(Cc2n[nH]c(=O)c3ccccc23)ccc1F)N1CCN(C(=O)C2CC2)CC1 [Olaparib] (partner 8 µM)
How it was run: as §1

## SW 900
Ruboxistaurin; 0.08 µM
  relative viability: 0.897
Ruboxistaurin; 0.8 µM
  relative viability: 0.897
Ruboxistaurin; 2.53 µM
  relative viability: 1.14
Ruboxistaurin; 8 µM
  relative viability: 0.958
[1]; first compound 0.08 µM
  relative viability: 0.785
[1]; first compound 0.8 µM
  relative viability: 0.972
[1]; first compound 2.53 µM
  relative viability: 0.912
[1]; first compound 8 µM
  relative viability: 0.693
[2]; first compound 0.08 µM
  relative viability: 0.598
[2]; first compound 0.8 µM
  relative viability: 0.499
[2]; first compound 2.53 µM
  relative viability: 0.681
[2]; first compound 8 µM
  relative viability: 0.553
[3]; first compound 0.08 µM
  relative viability: 0.216
[3]; first compound 0.8 µM
  relative viability: 0.194
[3]; first compound 2.53 µM
  relative viability: 0.177
[3]; first compound 8 µM
  relative viability: 0.177
[4]; first compound 0.08 µM
  relative viability: 0.918
[4]; first compound 0.8 µM
  relative viability: 0.872
[4]; first compound 2.53 µM
  relative viability: 0.833
[4]; first compound 8 µM
  relative viability: 0.955
Ruboxistaurin + OSI-027; first compound 0.08 µM
  relative viability: 0.555
Ruboxistaurin + OSI-027; first compound 0.8 µM
  relative viability: 0.5
Ruboxistaurin + OSI-027; first compound 2.53 µM
  relative viability: 0.593
Ruboxistaurin + OSI-027; first compound 8 µM
  relative viability: 0.422
[5]; first compound 0.08 µM
  relative viability: 0.647
[5]; first compound 0.8 µM
  relative viability: 0.499
[5]; first compound 2.53 µM
  relative viability: 0.656
[5]; first compound 8 µM
  relative viability: 0.452
[6]; first compound 0.08 µM
  relative viability: 0.838
[6]; first compound 0.8 µM
  relative viability: 0.436
[6]; first compound 2.53 µM
  relative viability: 0.64
[6]; first compound 8 µM
  relative viability: 0.383
[7]; first compound 0.08 µM
  relative viability: 0.71
[7]; first compound 0.8 µM
  relative viability: 0.597
[7]; first compound 2.53 µM
  relative viability: 0.564
[7]; first compound 8 µM
  relative viability: 0.55
Ruboxistaurin + AZD7762; first compound 0.08 µM
  relative viability: 0.625
Ruboxistaurin + AZD7762; first compound 0.8 µM
  relative viability: 0.501
Ruboxistaurin + AZD7762; first compound 2.53 µM
  relative viability: 1.09
Ruboxistaurin + AZD7762; first compound 8 µM
  relative viability: 0.568
[8]; first compound 0.08 µM
  relative viability: 0.479
[8]; first compound 0.8 µM
  relative viability: 0.421
[8]; first compound 2.53 µM
  relative viability: 0.489
[8]; first compound 8 µM
  relative viability: 0.491
[9]; first compound 0.08 µM
  relative viability: 0.4
[9]; first compound 0.8 µM
  relative viability: 0.395
[9]; first compound 2.53 µM
  relative viability: 0.5
[9]; first compound 8 µM
  relative viability: 0.566
[10]; first compound 0.08 µM
  relative viability: 0.738
[10]; first compound 0.8 µM
  relative viability: 0.47
[10]; first compound 2.53 µM
  relative viability: 0.603
[10]; first compound 8 µM
  relative viability: 0.496
Ruboxistaurin + Olaparib; first compound 0.08 µM
  relative viability: 0.891
Ruboxistaurin + Olaparib; first compound 0.8 µM
  relative viability: 0.829
Ruboxistaurin + Olaparib; first compound 2.53 µM
  relative viability: 1.03
Ruboxistaurin + Olaparib; first compound 8 µM
  relative viability: 0.964
